From patent publication US20250275959A1, “COMPOUNDS AND METHODS OF THEIR USE” (LEXICON PHARMACEUTICALS, INC., priority 2024, published 2025)

Assays:
hACSL5 [1] = biological target: T1, hACSL5 (Homo sapiens (Human), UniProt Q9ULC5); experiment: Human ACSL5 coupled enzyme Amplex Red assay; assay type: biochemical; conditions: read-out: hACSL5 IC50
In short: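 C-terminally His-tagged ACSL5 (33-683) from sf9 cells, 20 nM, was preincubated with compound in MOPS-NaOH pH 7.6 with MgCl2, peroxidase and acyl-CoA oxidase. Reactions were started with 25 μM oleate, 30 μM CoA, 1 mM ATP and 50 μM Amplex Red; fluorescence (535/590 nm) after 10 minutes at 25° C. was fitted to the Hill equation for IC50 and maximal inhibition.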
Target sequence in this assay (Q9ULC5 33-683): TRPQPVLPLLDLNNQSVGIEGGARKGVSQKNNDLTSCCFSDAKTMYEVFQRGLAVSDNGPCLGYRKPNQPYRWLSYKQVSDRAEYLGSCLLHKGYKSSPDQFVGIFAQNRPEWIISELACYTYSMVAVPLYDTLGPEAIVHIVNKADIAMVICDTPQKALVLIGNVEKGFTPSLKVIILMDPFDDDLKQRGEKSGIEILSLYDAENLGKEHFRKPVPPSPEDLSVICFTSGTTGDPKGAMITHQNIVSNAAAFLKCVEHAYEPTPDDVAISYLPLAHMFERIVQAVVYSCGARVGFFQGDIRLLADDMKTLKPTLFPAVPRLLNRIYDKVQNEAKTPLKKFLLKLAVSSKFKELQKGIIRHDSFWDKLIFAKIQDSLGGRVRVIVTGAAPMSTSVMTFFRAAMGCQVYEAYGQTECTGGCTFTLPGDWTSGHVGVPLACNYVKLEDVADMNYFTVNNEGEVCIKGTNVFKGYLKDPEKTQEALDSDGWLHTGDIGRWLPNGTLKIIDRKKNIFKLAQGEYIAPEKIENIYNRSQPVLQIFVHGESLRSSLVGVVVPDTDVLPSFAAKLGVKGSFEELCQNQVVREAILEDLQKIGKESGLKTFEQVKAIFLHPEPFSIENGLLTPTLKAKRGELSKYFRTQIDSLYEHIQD

hACSL5 [2] = biological target: T1, hACSL5; experiment: Cell-based assay (CBA) with B12FA in hACSL5-transfected Expi293F / FlpIn TRex293 cells; conditions: hACSL5-expressing cells
Excerpt: To assess the cell penetration and cellular activity of the compounds, a cell-based assay (CBA) was used to detect compound potency in living cells. The assay utilized the fluorescent fatty acid analogue B12FA, a boron-dipyrromethene (BODIPY™) labelled C12 fatty acid that can be incorporated into glycerophosphocholine in the cytoplasmic oil droplets of live cells. A concentration-dependent, red-shifted fluorescence can be induced by the formation of BODIPY™ excimers in the oil droplets.
Expi293F cells transfected with full length hACSL5 plasmid were selected using 1 mg/mL G418 culture medium and clones were selected by in vitro whole cell lysate (WCL) assay. The cell passage number used in the Expi293 CBA assay could not be used beyond 10 passages due to a decrease in hACSL5 expression. Therefore, a CBA using FlpIn TRex293 cells for inducible expression of hACSL5 was also established.
FlpIn TRex293 cells transfected with hACSL5 plasmid were selected in culture medium containing 15 µg/ml Blasticidin and 150 µg/ml Hygromycin. For cell-based assays, stable transfected hACSL5 cells were seeded onto a 96-well plate at 30-50k/well and incubated overnight. For the inducible system, […] tetracycline (or doxycycline) was added to culture medium of FlpIn TRex293 hACSL5 cells on the day before the assay to induce expression of hACSL5. The next day, growth media was replaced with culture medium without FBS and glucose (DMEM glucose (-), ThermoFisher) and cells were incubated for an hour before treating cells with serial diluted compounds containing 20 µM B12FA (ThermoFisher) for another 3 hours in the above medium. Cells were then fixed in 4% formaldehyde for 10 minutes and washed twice with PBS. The plate was read using the Cytation 5 imaging system with an excitation wavelength of 485 nm and observed emissions at 630 nm and 520 nm. The percentage of inhibition was calculated as: […]
wherein A is the ratio of emission intensities at 630 nm/520 nm in the absence of inhibitor (maximum ratio); B is the ratio of the intensities at those wavelengths in the presence of […] of the test compound or non-induced cells (minimum ratio); and X is the ratio of the intensities at a given compound concentration.
Concentration-response titration points for each compound tested were filled to the Hill equation yielding concentrations of half maximal inhibition […] and maximal inhibition values.
Target sequence in this assay (Q9ULC5 whole entry): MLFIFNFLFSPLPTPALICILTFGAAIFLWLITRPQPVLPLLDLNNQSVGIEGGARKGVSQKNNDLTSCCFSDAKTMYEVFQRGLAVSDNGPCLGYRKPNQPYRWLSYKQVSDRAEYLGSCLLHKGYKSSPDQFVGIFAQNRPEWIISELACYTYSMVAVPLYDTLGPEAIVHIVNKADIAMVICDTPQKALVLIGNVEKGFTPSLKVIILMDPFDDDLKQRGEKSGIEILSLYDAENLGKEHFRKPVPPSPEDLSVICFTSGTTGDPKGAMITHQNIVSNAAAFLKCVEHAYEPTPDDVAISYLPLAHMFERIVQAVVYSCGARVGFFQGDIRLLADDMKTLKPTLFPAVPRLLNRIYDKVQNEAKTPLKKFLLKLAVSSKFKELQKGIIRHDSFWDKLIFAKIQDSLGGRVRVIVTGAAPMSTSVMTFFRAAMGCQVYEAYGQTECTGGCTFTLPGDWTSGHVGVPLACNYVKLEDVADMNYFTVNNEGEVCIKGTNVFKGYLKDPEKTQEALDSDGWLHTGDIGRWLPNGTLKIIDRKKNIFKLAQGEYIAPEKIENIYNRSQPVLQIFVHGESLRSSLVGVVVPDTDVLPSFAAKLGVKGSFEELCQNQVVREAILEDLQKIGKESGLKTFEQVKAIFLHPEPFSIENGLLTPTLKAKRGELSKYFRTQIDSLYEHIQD

Row | Structure (SMILES) | IC50 (hACSL5 [1]) [nM] | IC50 (hACSL5 [2]) [nM]
1 | CC[C@@H](Oc1ccc(C(=O)NS(=O)(=O)N2CCC(OC3CCN(C)CC3)CC2)c(F)c1F)c1cccc(OCC2CC2)c1 [(R)-4-(1-(3-(cyclopropylmethoxy)phenyl)propoxy)-2,3-difluoro-N-((4-((1-methylpiperidin-4-yl)oxy)piperidin-1-yl)sulfonyl)benzamide] | 100 to 500 | 100 to 500
2 | CC[C@@H](Oc1ccc(C(=O)NS(=O)(=O)c2ccc(OC3CCN(C)CC3)cc2)c(F)c1F)c1cc(OCC2CC2)ccn1 [(R)-4-(1-(4-(cyclopropylmethoxy)pyridin-2-yl)propoxy)-2,3-difluoro-N-((4-((1-methylpiperidin-4-yl)oxy)phenyl)sulfonyl)benzamide] | 100 to 500 | 100 to 500
3 | CC[C@@H](Oc1ccc(C(=O)NS(=O)(=O)N2CCC(OC3CCN(C)CC3)CC2)c(F)c1F)c1cc(OCC2CC2)ccn1 [(R)-4-(1-(4-(cyclopropylmethoxy)pyridin-2-yl)propoxy)-2,3-difluoro-N-((4-((1-methylpiperidin-4-yl)oxy)piperidin-1-yl)sulfonyl)benzamide] | 100 to 500 | 100 to 500
4 | CC[C@@H](Oc1ccc(C(=O)NS(=O)(=O)N2CCN(C)CC2)c(F)c1F)c1cc(OCC2CC2)ccn1 [(R)-4-(1-(4-(cyclopropylmethoxy)pyridin-2-yl)propoxy)-2,3-difluoro-N-((4-methylpiperazin-1-yl)sulfonyl)benzamide] | 100 to 500 | 100 to 500
5 | CC[C@@H](Oc1ccc(C(=O)NS(=O)(=O)c2ccc(OCCN(C)C)cc2)c(F)c1F)c1cc(OCC2CC2)ccn1 [(R)-4-(1-(4-(cyclopropylmethoxy)pyridin-2-yl)propoxy)-N-((4-(2-(dimethylamino)ethoxy)phenyl)sulfonyl)-2,3-difluorobenzamide] | 100 to 500 | 100 to 500
6 | CC[C@@H](Oc1ccc(C(=O)NS(=O)(=O)C2CCN(C)CC2)c(F)c1F)c1ccc(OCC2CC2)cn1 [(R)-4-(1-(5-(cyclopropylmethoxy)pyridin-2-yl)propoxy)-2,3-difluoro-N-((1-methylpiperidin-4-yl)sulfonyl)benzamide] | 100 to 500 | > 500
7 | CC[C@@H](Oc1ccc(C(=O)NS(=O)(=O)c2cnc(OC3CCN(C)CC3)nc2)c(F)c1F)c1ccc(OCC2CC2)cn1 [(R)-4-(1-(5-(cyclopropylmethoxy)pyridin-2-yl)propoxy)-2,3-difluoro-N-((2-((1-methylpiperidin-4-yl)oxy)pyrimidin-5-yl)sulfonyl)benzamide] | < 100 | > 500
8 | CC[C@@H](Oc1ccc(C(=O)NS(=O)(=O)N2CCN(C)C(C)(C)C2)c(F)c1F)c1ccc(OCC2CC2)cn1 [(R)-4-(1-(5-(cyclopropylmethoxy)pyridin-2-yl)propoxy)-2,3-difluoro-N-((3,3,4-trimethylpiperazin-1-yl)sulfonyl)benzamide] | < 100 | < 100
9 | CC[C@@H](Oc1ccc(C(=O)NS(=O)(=O)c2ccc(OCCN3CCN(C)CC3)cc2)c(F)c1F)c1ccc(OCC2CC2)cn1 [(R)-4-(1-(5-(cyclopropylmethoxy)pyridin-2-yl)propoxy)-2,3-difluoro-N-((4-(2-(4-methylpiperazin-1-yl)ethoxy)phenyl)sulfonyl)benzamide] | < 100 | 100 to 500
10 | CC[C@@H](Oc1ccc(C(=O)NS(=O)(=O)c2ccc(OCCNC3COC3)cc2)c(F)c1F)c1ccc(OCC2CC2)cn1 [(R)-4-(1-(5-(cyclopropylmethoxy)pyridin-2-yl)propoxy)-2,3-difluoro-N-((4-(2-(oxetan-3-ylamino)ethoxy)phenyl)sulfonyl)benzamide] | < 100 | 100 to 500
11 | CC[C@@H](Oc1ccc(C(=O)NS(=O)(=O)c2ccc(OCCN3CCCCC3)cc2)c(F)c1F)c1ccc(OCC2CC2)cn1 [(R)-4-(1-(5-(cyclopropylmethoxy)pyridin-2-yl)propoxy)-2,3-difluoro-N-((4-(2-(piperidin-1-yl)ethoxy)phenyl)sulfonyl)benzamide] | < 100 | < 100
12 | CC[C@@H](Oc1ccc(C(=O)NS(=O)(=O)c2ccc(OCCN3CCCC3)cc2)c(F)c1F)c1ccc(OCC2CC2)cn1 [(R)-4-(1-(5-(cyclopropylmethoxy)pyridin-2-yl)propoxy)-2,3-difluoro-N-((4-(2-(pyrrolidin-1-yl)ethoxy)phenyl)sulfonyl)benzamide] | < 100 | 100 to 500

The next lines start with the values.

Row | IC50 (hACSL5 [1]) [nM] | IC50 (hACSL5 [2]) [nM] | Structure (SMILES)
13 | < 100 | < 100 | CC[C@@H](Oc1ccc(C(=O)NS(=O)(=O)N2CCN(C)[C@H](C)C2)c(F)c1F)c1ccc(OCC2CC2)cn1 [4-((R)-1-(5-(cyclopropylmethoxy)pyridin-2-yl)propoxy)-N-(((R)-3,4-dimethylpiperazin-1-yl)sulfonyl)-2,3-difluorobenzamide]
14 | < 100 | < 100 | CC[C@@H](Oc1ccc(C(=O)NS(=O)(=O)N2CCN(C)[C@@H](C)C2)c(F)c1F)c1ccc(OCC2CC2)cn1 [4-((R)-1-(5-(cyclopropylmethoxy)pyridin-2-yl)propoxy)-N-(((S)-3,4-dimethylpiperazin-1-yl)sulfonyl)-2,3-difluorobenzamide]
15 | < 100 | < 100 | CC[C@@H](Oc1ccc(C(=O)NS(=O)(=O)N2CCN(C)CC2(C)C)c(F)c1F)c1ccc(Oc2ccccn2)cn1 [(R)-2,3-difluoro-4-(1-(5-(pyridin-2-yloxy)pyridin-2-yl)propoxy)-N-((2,2,4-trimethylpiperazin-1-yl)sulfonyl)benzamide]
16 | < 100 | 100 to 500 | CC[C@@H](Oc1ccc(C(=O)NS(=O)(=O)C2CCN(C)CC2)c(F)c1F)c1ccc(Oc2ccccn2)cn1 [(R)-2,3-difluoro-N-((1-methylpiperidin-4-yl)sulfonyl)-4-(1-(5-(pyridin-2-yloxy)pyridin-2-yl)propoxy)benzamide]
17 | < 100 | < 100 | CC[C@@H](Oc1ccc(C(=O)NS(=O)(=O)N2CCN(CC(C)(C)F)CC2)c(F)c1F)c1ccc(Oc2ccccn2)cn1 [(R)-2,3-difluoro-N-((4-(2-fluoro-2-methylpropyl)piperazin-1-yl)sulfonyl)-4-(1-(5-(pyridin-2-yloxy)pyridin-2-yl)propoxy)benzamide]
18 | < 100 | < 100 | CC[C@@H](Oc1ccc(C(=O)NS(=O)(=O)N2CCN(CC(C)(C)O)CC2)c(F)c1F)c1ccc(Oc2ccccn2)cn1 [(R)-2,3-difluoro-N-((4-(2-hydroxy-2-methylpropyl)piperazin-1-yl)sulfonyl)-4-(1-(5-(pyridin-2-yloxy)pyridin-2-yl)propoxy)benzamide]
19 | < 100 | < 100 | CC[C@@H](Oc1ccc(C(=O)NS(=O)(=O)N2CCC(OC3CCN(CCOC)CC3)CC2)c(F)c1F)c1ccc(Oc2ccccn2)cn1 [(R)-2,3-difluoro-N-((4-((1-(2-methoxyethyl)piperidin-4-yl)oxy)piperidin-1-yl)sulfonyl)-4-(1-(5-(pyridin-2-yloxy)pyridin-2-yl)propoxy)benzamide]
20 | < 100 | 100 to 500 | CC[C@@H](Oc1ccc(C(=O)NS(=O)(=O)N2CCC(OC3CCN(C)CC3)CC2)c(F)c1F)c1cc(Oc2ccccn2)ccn1 [(R)-2,3-difluoro-N-((4-((1-methylpiperidin-4-yl)oxy)piperidin-1-yl)sulfonyl)-4-(1-(4-(pyridin-2-yloxy)pyridin-2-yl)propoxy)benzamide]
21 | < 100 | < 100 | CC[C@@H](Oc1ccc(C(=O)NS(=O)(=O)N2CCC(OC3CCN(C)CC3)CC2)c(F)c1F)c1ccc(Oc2ccccn2)cn1 [(R)-2,3-difluoro-N-((4-((1-methylpiperidin-4-yl)oxy)piperidin-1-yl)sulfonyl)-4-(1-(5-(pyridin-2-yloxy)pyridin-2-yl)propoxy)benzamide]
22 | < 100 | 100 to 500 | CC[C@@H](Oc1ccc(C(=O)NS(=O)(=O)N2CCN(C)CC2)c(F)c1F)c1cc(Oc2ccccn2)ccn1 [(R)-2,3-difluoro-N-((4-methylpiperazin-1-yl)sulfonyl)-4-(1-(4-(pyridin-2-yloxy)pyridin-2-yl)propoxy)benzamide]
23 | < 100 | < 100 | CC[C@@H](Oc1ccc(C(=O)NS(=O)(=O)N2CCN(C)CC2(C)C)c(F)c1F)c1ccc(OCC2CC2)cn1 [(R)-4-(1-(5-(cyclopropylmethoxy)pyridin-2-yl)propoxy)-2,3-difluoro-N-((2,2,4-trimethylpiperazin-1-yl)sulfonyl)benzamide]
